Test: Drug uptake in human L-132 cells assessed as mean fluorescence intensity at 2.5 uM after 2 hrs by flow cytometry (reference value: 4.6 +/- 1.2)
Assay type: ADME, cell-based
Conditions: l132, 2 h

Compound: CCC1=C(C)C2=C(C)c3c(C)c(CC)c(C)n3[B-](F)(F)[N+]2=C1/C=C/c1ccc(O[C@H]2O[C@H](CO)[C@@H](O)[C@H](O)[C@H]2O)cc1
- Flu intensity: 63.5

From ChEMBL document CHEMBL3865807, “Syntheses and photodynamic activity of some glucose-conjugated BODIPY dyes” (Eur J Med Chem, 2016)
